US20260262643A1, “HERBICIDAL BENZOXAZINES” (FMC CORPORATION, priority 2022, published 2026)

Key:
soybean [1] = experiment: Test A preemergence; type: in vivo, Glycine max; conditions: visual injury after 10 days, 0 to 100 scale, 0 is no effect, 100 is complete control
Procedure, shortened: (§1)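 Plants were grown in loam and sand and treated preemergence or postemergence (one- to two-leaf stage, 2–10 cm) with compound in solvent plus surfactant. Response was scored against untreated controls after 10 greenhouse days, where 0 means no effect and 100 complete control.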

corn [2] = experiment: Test A postemergence; type: in vivo, Zea mays; conditions: postemergence, 10 days
Procedure, shortened: as §1

ducksalad = experiment: Test B flooded paddy test; type: in vivo, Heteranthera limosa; conditions: 250 g ai/ha, Flood, 13 days, 0 to 100 scale (0 no effect, 100 complete control)
Procedure, shortened: (§2)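 Species grown to 2-leaf stage; pots flooded 3 cm above soil and compound applied directly to paddy water, depth maintained throughout. After 13 days in greenhouse, plants visually rated against controls on 0–100 scale (0 no effect, 100 complete control); dash means no result.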

corn [3] = experiment: Test A preemergence; type: in vivo, Zea mays; conditions: visual injury after 10 days, 0 to 100 scale, 0 is no effect, 100 is complete control
Procedure, shortened: as §1

rice = experiment: Test B flooded paddy test; type: in vivo, Oryza sativa; conditions: 250 g ai/ha, Flood, 13 days, 0 to 100 scale (0 no effect, 100 complete control)
Procedure, shortened: as §2

galium = experiment: Test A postemergence; type: in vivo, Galium aparine; conditions: postemergence, 10 days
Procedure, shortened: as §1

pigweed, palmer [4] = experiment: Test A preemergence; type: in vivo, Amaranthus palmeri; conditions: visual injury after 10 days, 0 to 100 scale, 0 is no effect, 100 is complete control
Procedure, shortened: as §1

barnyardgrass [5] = experiment: Test A preemergence; type: in vivo, Echinochloa crusgalli; conditions: visual injury after 10 days, 0 to 100 scale, 0 is no effect, 100 is complete control
Procedure, shortened: as §1

blackgrass [6] = experiment: Test A postemergence; type: in vivo, Alopecurus myosuroides; conditions: postemergence, 10 days
Procedure, shortened: as §1

wheat [7] = experiment: Test A postemergence; type: in vivo, Triticum aestivum; conditions: postemergence, 10 days
Procedure, shortened: as §1

ryegrass, Italian [8] = experiment: Test A postemergence; type: in vivo, Lolium multiflorum; conditions: postemergence, 10 days
Procedure, shortened: as §1

wheat [9] = experiment: Test A preemergence; type: in vivo, Triticum aestivum; conditions: visual injury after 10 days, 0 to 100 scale, 0 is no effect, 100 is complete control
Procedure, shortened: as §1

barnyardgrass [10] = experiment: Test B flooded paddy test; type: in vivo, Echinochloa crus-galli; conditions: 250 g ai/ha, Flood, 13 days, 0 to 100 scale (0 no effect, 100 complete control)
Procedure, shortened: as §2

blackgrass [11] = experiment: Test A preemergence; type: in vivo, Alopecurus myosuroides; conditions: visual injury after 10 days, 0 to 100 scale, 0 is no effect, 100 is complete control
Procedure, shortened: as §1

foxtail, giant [12] = experiment: Test A preemergence; type: in vivo, Setaria faberi; conditions: visual injury after 10 days, 0 to 100 scale, 0 is no effect, 100 is complete control
Procedure, shortened: as §1

barnyardgrass [13] = experiment: Test A postemergence; type: in vivo, Echinochloa crusgalli; conditions: postemergence, 10 days
Procedure, shortened: as §1

horseweed = experiment: Test A postemergence; type: in vivo, Erigeron canadensis; conditions: postemergence, 10 days
Procedure, shortened: as §1

ragweed [14] = experiment: Test A preemergence; type: in vivo, Ambrosia artemisiifolia; conditions: visual injury after 10 days, 0 to 100 scale, 0 is no effect, 100 is complete control
Procedure, shortened: as §1

soybean [15] = experiment: Test A postemergence; type: in vivo, Glycine max; conditions: postemergence, 10 days
Procedure, shortened: as §1

kochia [16] = experiment: Test A preemergence; type: in vivo, Bassia scoparia; conditions: visual injury after 10 days, 0 to 100 scale, 0 is no effect, 100 is complete control
Procedure, shortened: as §1

oat, wild [17] = experiment: Test A postemergence; type: in vivo, Avena fatua; conditions: postemergence, 10 days
Procedure, shortened: as §1

foxtail, giant [18] = experiment: Test A postemergence; type: in vivo, Setaria faberi; conditions: postemergence, 10 days
Procedure, shortened: as §1

sedge, umbrella = experiment: Test B flooded paddy test; type: in vivo, Cyperus difformis; conditions: 250 g ai/ha, Flood, 13 days, 0 to 100 scale (0 no effect, 100 complete control)
Procedure, shortened: as §2

oat, wild [19] = experiment: Test A preemergence; type: in vivo, Avena fatua; conditions: visual injury after 10 days, 0 to 100 scale, 0 is no effect, 100 is complete control
Procedure, shortened: as §1

ragweed [20] = experiment: Test A postemergence; type: in vivo, Ambrosia artemisiifolia; conditions: postemergence, 10 days
Procedure, shortened: as §1

pigweed, palmer [21] = experiment: Test A postemergence; type: in vivo, Amaranthus palmeri; conditions: postemergence, 10 days
Procedure, shortened: as §1

kochia [22] = experiment: Test A postemergence; type: in vivo, Bassia scoparia; conditions: postemergence, 10 days
Procedure, shortened: as §1

ryegrass, Italian [23] = experiment: Test A preemergence; type: in vivo, Lolium multiflorum; conditions: visual injury after 10 days, 0 to 100 scale, 0 is no effect, 100 is complete control
Procedure, shortened: as §1

[24] = 125 g ai/ha, 0 to 100 scale, 0 no effect, 100 complete control
[25] = 500 g ai/ha, visual injury, 0 to 100 scale (0 no effect, 100 complete control)

COCCc1ncn(-c2cccc(C(=O)N3C[C@H](C)Oc4c(C)cccc43)c2)n1 [Compound 113]
Plant response rating, Soybean (soybean [1]; 125 g ai/ha): 30
Plant response rating, Soybean (soybean [1]; 500 g ai/ha): 80
Corn plant response rating (corn [2]; [24]): 90
Plant response rating, Corn (corn [2]; [25]): 90
Plant response rating, Ducksalad (ducksalad): 65
Plant response rating, Corn (corn [3]; 125 g ai/ha): 20
Plant response rating, Corn (corn [3]; 500 g ai/ha): 90
Plant response rating, Rice (rice): 0
Galium plant response rating (galium; [24]): 90
Plant response rating, Galium (galium; [25]): 100
Plant response rating, Pigweed, Palmer (pigweed, palmer [4]; 125 g ai/ha): 90
Plant response rating, Pigweed, Palmer (pigweed, palmer [4]; 500 g ai/ha): 100
Plant response rating, Barnyardgrass (barnyardgrass [5]; 125 g ai/ha): 90
Plant response rating, Barnyardgrass (barnyardgrass [5]; 500 g ai/ha): 100
Blackgrass plant response rating (blackgrass [6]; [24]): 80
Plant response rating, Blackgrass (blackgrass [6]; [25]): 90
Wheat plant response rating (wheat [7]; [24]): 50
Plant response rating, Wheat (wheat [7]; [25]): 80
Ryegrass, Italian plant response rating (ryegrass, Italian [8]; [24]): 50
Plant response rating, Ryegrass, Italian (ryegrass, Italian [8]; [25]): 100
Plant response rating, Wheat (wheat [9]; 125 g ai/ha): 80
Plant response rating, Wheat (wheat [9]; 500 g ai/ha): 90
Plant response rating, Barnyardgrass (barnyardgrass [10]): 45
Plant response rating, Blackgrass (blackgrass [11]; 125 g ai/ha): 70
Plant response rating, Blackgrass (blackgrass [11]; 500 g ai/ha): 90
Plant response rating, Foxtail, Giant (foxtail, giant [12]; 125 g ai/ha): 100
Plant response rating, Foxtail, Giant (foxtail, giant [12]; 500 g ai/ha): 100
Barnyardgrass plant response rating (barnyardgrass [13]; [24]): 60
Plant response rating, Barnyardgrass (barnyardgrass [13]; [25]): 90
Horseweed plant response rating (horseweed; [24]): 10
Plant response rating, Horseweed (horseweed; [25]): 30
Plant response rating, Ragweed (ragweed [14]; 125 g ai/ha): 0
Plant response rating, Ragweed (ragweed [14]; 500 g ai/ha): 70
Soybean plant response rating (soybean [15]; [24]): 100
Plant response rating, Soybean (soybean [15]; [25]): 100
Plant response rating, Kochia (kochia [16]; 125 g ai/ha): 60
Plant response rating, Kochia (kochia [16]; 500 g ai/ha): 100
Oat, Wild plant response rating (oat, wild [17]; [24]): 70
Plant response rating, Oat, Wild (oat, wild [17]; [25]): 80
Foxtail, Giant plant response rating (foxtail, giant [18]; [24]): 60
Plant response rating, Foxtail, Giant (foxtail, giant [18]; [25]): 90
Plant response rating, Sedge, Umbrella (sedge, umbrella): 80
Plant response rating, Oat, Wild (oat, wild [19]; 125 g ai/ha): 80
Plant response rating, Oat, Wild (oat, wild [19]; 500 g ai/ha): 90
Ragweed plant response rating (ragweed [20]; [24]): 50
Plant response rating, Ragweed (ragweed [20]; [25]): 50
Pigweed, Palmer plant response rating (pigweed, palmer [21]; [24]): 30
Plant response rating, Pigweed, Palmer (pigweed, palmer [21]; [25]): 80
Kochia plant response rating (kochia [22]; [24]): 40
Plant response rating, Kochia (kochia [22]; [25]): 90
Plant response rating, Ryegrass, Italian (ryegrass, Italian [23]; 125 g ai/ha): 90
Plant response rating, Ryegrass, Italian (ryegrass, Italian [23]; 500 g ai/ha): 100
